According to article PMC4558462, “A new small molecule inhibitor of soluble guanylate cyclase” (Bioorganic & Medicinal Chemistry, 2015):
“Also recorded” adds a separate entry of the source. Read-outs that look alike come from different tables or passages of the source.

How the values were obtained:
purified bovine lung sGC = target: T1, purified bovine lung sGC (Bos taurus, UniProt P16068+P19687); experiment: Soluble guanylate cyclase activity assay (cGMP radioimmunoassay); assay type: biochemical; details: for inhibition of sGC enzyme activity (in words): discussion of Table 1
T1 construct: screened at 100 μM against purified bovine lung sGC; purchased Enzo lifesciences ALX-202-039-C005; host or cells: bovine lung
T1 sequence (P19687 1-691): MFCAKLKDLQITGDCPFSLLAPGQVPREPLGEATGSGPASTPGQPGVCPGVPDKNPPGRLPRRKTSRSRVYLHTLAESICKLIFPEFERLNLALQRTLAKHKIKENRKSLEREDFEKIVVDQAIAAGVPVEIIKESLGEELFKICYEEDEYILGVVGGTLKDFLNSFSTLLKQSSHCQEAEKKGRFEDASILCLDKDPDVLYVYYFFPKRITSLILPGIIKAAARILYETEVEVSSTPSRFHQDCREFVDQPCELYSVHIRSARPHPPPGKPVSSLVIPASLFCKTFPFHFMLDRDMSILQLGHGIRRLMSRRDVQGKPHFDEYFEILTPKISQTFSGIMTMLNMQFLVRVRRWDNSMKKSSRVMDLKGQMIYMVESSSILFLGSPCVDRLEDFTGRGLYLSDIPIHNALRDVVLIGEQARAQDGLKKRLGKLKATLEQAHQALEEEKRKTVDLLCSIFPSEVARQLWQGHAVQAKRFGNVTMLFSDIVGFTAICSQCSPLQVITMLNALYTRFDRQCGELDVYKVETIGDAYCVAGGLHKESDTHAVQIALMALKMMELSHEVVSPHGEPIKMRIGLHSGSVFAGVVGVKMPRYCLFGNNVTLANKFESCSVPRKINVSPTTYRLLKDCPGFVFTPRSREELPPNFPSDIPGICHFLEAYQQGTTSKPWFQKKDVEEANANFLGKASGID
T1 sequence (P16068 1-619): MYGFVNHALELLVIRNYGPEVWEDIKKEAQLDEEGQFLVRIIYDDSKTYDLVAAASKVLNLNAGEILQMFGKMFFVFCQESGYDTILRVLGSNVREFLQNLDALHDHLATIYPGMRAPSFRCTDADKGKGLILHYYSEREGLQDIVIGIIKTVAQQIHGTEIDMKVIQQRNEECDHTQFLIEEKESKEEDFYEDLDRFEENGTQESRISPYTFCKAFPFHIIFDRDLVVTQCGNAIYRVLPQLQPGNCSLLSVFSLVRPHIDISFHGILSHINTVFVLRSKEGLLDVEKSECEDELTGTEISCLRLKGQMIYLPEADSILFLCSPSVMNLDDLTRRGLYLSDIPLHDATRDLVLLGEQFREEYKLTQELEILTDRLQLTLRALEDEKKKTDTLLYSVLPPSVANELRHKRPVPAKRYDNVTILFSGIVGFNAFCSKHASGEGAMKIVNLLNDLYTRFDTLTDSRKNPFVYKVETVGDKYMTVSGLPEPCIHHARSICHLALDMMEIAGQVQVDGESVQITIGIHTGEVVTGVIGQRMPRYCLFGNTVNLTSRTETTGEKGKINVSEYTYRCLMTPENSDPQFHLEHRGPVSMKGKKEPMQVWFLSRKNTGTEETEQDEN
Procedure: Virtual screening was performed by similarity searches using MACCS fingerprints at 85% and 75% Tanimoto of commercial libraries and the selected compounds were screened at 100 μM against purified bovine lung sGC using diethylamine NONOate (30 nM) as the NO donor. Enzyme activity was determined by measuring cGMP production using a standard cGMP [^3H] radioimmunoassay.[21,22]
[…] Compounds were added at 100 μM prior to adding the NO donor DEA/NO (30 nM) or clamped NO concentrations. cGMP generation was allowed to proceed for two minutes, after which aliquots were withdrawn and inactivated by boiling in 50 mM Tris, 4 mM EDTA buffer. cGMP formation was measured by a standard radioimmunoassay.

sGCcat = target: T2, sGCcat (Homo sapiens, UniProt Q02108+Q02153); experiment: SPR binding to catalytic domain of sGC; details: for sGCcat (SPR) binding norm. resp. (RU): Biacore T200, 25 °C; for binding to sGCcat (in words): discussion of Table 1
T2 construct: a smaller construct of the catalytic domain (sGCcat)
T2 sequence (Q02108 481-608 limits assumed): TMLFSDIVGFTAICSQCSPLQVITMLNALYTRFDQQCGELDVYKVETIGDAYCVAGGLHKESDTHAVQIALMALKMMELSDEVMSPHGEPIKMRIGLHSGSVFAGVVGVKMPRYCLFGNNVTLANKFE
T2 sequence (Q02153 421-554 limits assumed): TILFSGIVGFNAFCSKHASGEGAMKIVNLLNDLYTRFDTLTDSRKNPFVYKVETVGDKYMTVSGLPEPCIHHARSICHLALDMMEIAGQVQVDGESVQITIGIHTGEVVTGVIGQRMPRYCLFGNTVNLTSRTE
Procedure: We have previously described a surface plasmon resonance-based assay for the detection of binding of small molecules to full-length sGC and a smaller construct of the catalytic domain (sGCcat).[24] This assay was used to measure the binding of the compounds to sGCcat.[24] […] The position of the hydroxyl group can be changed whilst retaining binding strength and activity.
Surface plasmon resonance (SPR) experiments were performed with a Biacore T200 instrument at 25 °C. Data processing and analysis were performed using BIAevaluation software and Scrubber2. All sensorgrams were double referenced by subtracting the response in a reference flowcell and a blank sample. Materials and methods used were the same as previously published.[24]

[1] = synthesised analogues, 100 μM, read-out: sGC activity% inhibition at 100 μM
[2] = virtual screening hits, 100 μM compound, diethylamine NONOate 30 nM as NO donor, read-out: % inhibition of sGC activity at 100 μM compound
[3] = read-out: % inhibition of sGC activity at 100 μM compound

Row | Molecule | inhibition of sGC enzyme activity (in words) (purified bovine lung sGC) | sGCcat (SPR) binding norm. resp. (RU) (sGCcat) | binding to sGCcat (in words) (sGCcat) | inhibition at 100 µM (purified bovine lung sGC; [1]) | inhibition at 100 µM (purified bovine lung sGC; [2]) | inhibition at 100 µM (purified bovine lung sGC; [3])
1 | N#Cc1ccc2nc(Nc3ccc(O)cc3)c(Nc3ccc(O)cc3)nc2c1 [Compound 23, 2,3-Bis((4-hydroxyphenyl)amino)quinoxaline-6-carbonitrile] | do not inhibit the enzyme activity | 4.5 ± 2 RU | bind to the receptor | – | – | –
2 | Oc1cccc(Nc2nc3ccc(Cl)cc3nc2Nc2cccc(O)c2)c1 [Compound 26, 3,3′-((6-Chloroquinoxaline-2,3-diyl)bis(azanediyl))diphenol] | do not inhibit the enzyme activity | 9.0 ± 0.4 RU | bind to the receptor | – | – | –
3 | Oc1cccc(Nc2nc3ccc(C(F)(F)F)cc3nc2Nc2cccc(O)c2)c1 [Compound 22, 3,3′-((6-(Trifluoromethyl)quinoxaline-2,3-diyl)bis(azanediyl))diphenol] | – | 3.0 ± 0.5 RU | – | 21.1% | – | –
4 | 6,7-Bis((3-hydroxyphenyl)amino)-N-methyl-2-naphthamide [Compound 28] | – | 9.6 ± 0.3 RU | higher binding | – | – | –
5 | Oc1ccc(Nc2nc3ccc(C(F)(F)F)cc3nc2Nc2ccc(O)cc2)cc1 [Compound 21, 4,4′-((6-(Trifluoromethyl)quinoxaline-2,3-diyl)bis(azanediyl))diphenol] | – | 6.4 ± 0.5 RU | higher binding | 44.4% | – | –
6 | CC(=O)Nc1ccc(Nc2nc3ccc([N+](=O)[O-])cc3nc2Nc2ccc(NC(C)=O)cc2)cc1 [Compound 17, N,N′-(((6-Nitroquinoxaline-2,3-diyl)bis(azanediyl))bis(4,1-phenylene))diacetamide] | biochemically inactive | 0.8 ± 0.3 RU | reduced its binding strength | – | – | –
7 | CC(=O)Nc1cccc(Nc2nc3ccc([N+](=O)[O-])cc3nc2Nc2cccc(NC(C)=O)c2)c1 [Compound 18, N,N′-(((6-Nitroquinoxaline-2,3-diyl)bis(azanediyl))bis(3,1-phenylene))diacetamide] | biochemically inactive | 3.0 ± 1.0 RU | reduced its binding strength | – | – | –
8 | Clc1cccc(Nc2ncnc3ccccc23)c1Cl [Compound 5] | – | – | – | – | 51% | –
9 | O=[N+]([O-])c1ccccc1Nc1nc2nonc2nc1Nc1ccccc1[N+](=O)[O-] [Compound 8] | – | – | – | – | – | 90%
10 | O=[N+]([O-])c1ccc2nc(Nc3cccc(O)c3)c(Nc3cccc(O)c3)nc2c1 [Compound 14, 3,3′-((6-Nitroquinoxaline-2,3-diyl)bis(azanediyl))diphenol] | – | 11.6 ± 0.8 RU | higher binding | 41.4% | – | –
11 | Nc1ccc2nc(Nc3ccc(O)cc3)c(Nc3ccc(O)cc3)nc2c1 [Compound 29, 4,4′-((6-Aminoquinoxaline-2,3-diyl)bis(azanediyl))diphenol] | do not inhibit the enzyme activity | 9.9 ± 0.2 RU | higher binding; also recorded: bind to the receptor | – | – | –
12 | COc1ccc(Nc2nc3ccc([N+](=O)[O-])cc3nc2Nc2ccc(OC)cc2)cc1 [Compound 15, N2,N3-Bis(4-methoxyphenyl)-6-nitroquinoxaline-2,3-diamine] | biochemically inactive | 1.0 ± 0.3 RU | reduced its binding strength | – | – | –
13 | N#Cc1ccc2nc(Nc3cccc(O)c3)c(Nc3cccc(O)c3)nc2c1 [Compound 24, 2,3-Bis((3-hydroxyphenyl)amino)quinoxaline-6-carbonitrile] | do not inhibit the enzyme activity | 10.5 ± 0.5 RU | bind to the receptor | – | – | –
14 | Fc1cccc(Nc2nc3nonc3nc2Nc2cccc(F)c2)c1 [Compound 7] | – | – | – | – | 90% | –
15 | O=[N+]([O-])c1ccc2nc(Nc3ccccc3)c(Nc3ccccc3)nc2c1 [Compound 16, 6-Nitro-N2,N3-diphenylquinoxaline-2,3-diamine] | – | 2.6 ± 0.2 RU | – | – | – | –
16 | O=[N+]([O-])c1ccc2nc(Nc3ccc(F)cc3)c(Nc3ccc(F)cc3)nc2c1 [Compound 19, N2,N3-Bis(4-fluorophenyl)-6-nitroquinoxaline-2,3-diamine] | biochemically inactive | 1.9 ± 1.8 RU | reduced its binding strength | – | – | –
17 | Oc1ccc(Nc2nc3ccc(Cl)cc3nc2Nc2ccc(O)cc2)cc1 [Compound 25, 4,4′-((6-Chloroquinoxaline-2,3-diyl)bis(azanediyl))diphenol] | do not inhibit the enzyme activity | 9.7 ± 0.5 RU | bind to the receptor | – | – | –
18 | Oc1ccc(Nc2nc3ccccc3nc2Nc2ccc(O)cc2)cc1 [Compound 20, 4,4′-(Quinoxaline-2,3-diylbis(azanediyl))diphenol] | no significant inhibition | 12.4 ± 0.1 RU | higher binding; also recorded: only a small decrease in binding | – | – | –
19 | CC(=O)c1ccc(Nc2nc3cc([N+](=O)[O-])c([N+](=O)[O-])cc3nc2Nc2cccc(C(C)=O)c2)cc1 [Compound 9] | – | – | – | – | – | 73%
20 | CNC(=O)c1ccc2nc(Nc3ccc(O)cc3)c(Nc3ccc(O)cc3)nc2c1 [Compound 27, 2,3-Bis((4-hydroxyphenyl)amino)-N-methylquinoxaline-6-carboxamide] | – | 1.1 ± 0.3 RU | – | – | – | –
21 | N#Cc1cc(Nc2cccc(Cl)c2)c(Nc2cccc(Cl)c2)cc1C#N [Compound 6] | – | – | – | – | 51% | –
